pEC50, pIC50: −log10 of the molar value. Like-named read-outs stand apart in the source and are kept apart here.
Key:
VZV strain Ellen = assay: VZV primary assay, strain Ellen, HFF cells; format: cell-based, Varicella Zoster Virus; conditions: Human alphaherpesvirus 3, VZV primary assay, strain Ellen, cell line HFF; for pEC50: read-out: EC50; for EC90: read-out: EC90
Method: (§1) Assays were performed in monolayers as described. […] Toxicity was measured using CTG as above. […] Toxicity was measured using CTG as above.
(§2) Monolayers of HFF cells were prepared in six-well plates and incubated at 37° C. for 2 d to allow the cells to reach confluency. Media was then aspirated from the wells and 0.2 mL of virus-containing solution was added to each of three wells to yield 20-30 plaques in each well. The virus was allowed to adsorb to the cells for 1 h and the plates were agitated every 15 minutes. Compounds were diluted in assay media consisting of MEM with Earl's salts supplemented with 2% FBS, glutamine, penicillin, and gentamycin. Diluted drug was added to duplicate wells and the plates were incubated for various times, depending on the virus used. For HSV-1 and -2, the monolayers were then stained with 1% crystal violet in 20% methanol and the unbound dye removed by washing with dH20. For all other assays, the cell monolayer was stained with 1% Neutral Red solution for 4-6 h then the stain was aspirated and the cells were washed with PBS.

MEF cells = assay: Cytotoxicity concurrent with Murine CMV secondary assay; format: cell-based, mouse
Method: (§3) Compounds that were positive in the CPE assay were confirmed in a similar assay in 96-well plates according to established laboratory protocols with the compounds added 1 h post infection […]. Additionally, 12 1:3 dilutions were done instead of 6 1:5 dilutions for added accuracy. Genome copy number was determined by qPCR using primers 5′-[…]-3′, 5′ […]-3′, and probe 5′-[…]-3′.

[1] = Cytotoxicity concurrent with VZV Ellen primary assay; format: cell-based; conditions: human
Method: as §1

[2] = Cytotoxicity concurrent with HSV2 primary assay; format: cell-based; conditions: human
Method: as §1

[3] = Cytotoxicity concurrent with HSV1 E-377 primary assay; format: cell-based; conditions: human
Method: as §1

HFF cells = assay: Cytotoxicity concurrent with HCMV AD169 primary assay; format: cell-based, human
[4] = test system: HCMV strain GDGr K17 - resistant isolate; assay: HCMV primary assay, resistant isolate GDGr K17, HFF cells; format: cell-based, Human Cytomegalovirus; conditions: Human betaherpesvirus 5, HFF
Method: as §1

HSV1 strain E-377 = assay: HSV1 primary assay, strain E-377, HFF cells; format: cell-based, Herpes Simplex Virus 1; conditions: Human alphaherpesvirus 1, HSV1 primary assay, strain E-377, HFF cells; for pEC50: read-out: EC50; for EC90: read-out: EC90
Method: as §1, §2

Murine CMV strain Smith = assay: Murine CMV secondary assay, strain Smith, MEF cells; format: cell-based, Mouse Cytomegalovirus
Method: as §3

[5] = test system: Adenovirus Adenoid75 strain; assay: Adenovirus primary assay, Adenoid75 strain, HFF cells; format: cell-based; conditions: unidentified adenovirus, Adenovirus primary assay, HFF cells, Adenoid75 strain; for pEC50: read-out: EC50; for EC90: read-out: EC90
[6] = Cytotoxicity concurrent with Adenovirus primary assay; format: cell-based; conditions: human
HSV2 strain G = assay: HSV2 primary assay, strain G, HFF cells; format: cell-based, herpes simplex virus 2; conditions: Human alphaherpesvirus 2, HSV2 primary assay, strain G, HFF cells; for pEC50: read-out: EC50; for EC90: read-out: EC90
Method: as §1, §2

[7] = Metabolic stability in mice liver microsomes; conditions: mouse, microsomes, 1 h
Method: Potassium phosphate buffer (Kphos) was prepared by adding 0.647 g potassium phosphate monobasic (KH2PO4) and 3.527 g potassium phosphate dibasic (K2HPO4) to 400 mL of Milli-Q water. pH of the buffer was adjusted to 7.4 and volume was made up to 500 mL.
Stock solutions of the test compounds were prepared in DMSO at a concentration of 1 mM.
To this microsomal mix 1.42 μL (1 mM) of test compound and positive control were spiked, from this mix 70 μL was transferred to 96 well plate and pre-incubated at 37° C. for 5 min. […] The plates were centrifuged at 4000 RPM for 15 min and 100 μL aliquots were submitted for analysis by LC-MS/MS.
Samples were monitored for parent compound disappearance in MRM mode using LC-MS/MS. The LC-MS/MS conditions and MRM chromatogram will be provided as per client request.
The peak area ratios of analyte versus internal standard were used to calculate the % remaining at the end of 60 minutes in presence NADPH.

HCMV strain AD169 = assay: HCMV primary assay (CPE), strain AD169, HFF cells; format: cell-based, Human Cytomegalovirus; conditions: HCMV primary assay, virus strain AD169, HFF cells; for pEC50: read-out: EC50; for EC90: read-out: EC90
Method: The antiviral activity of the compound against HCMV in the described Primary assay was measured by treating primary Human foreskin fibroblast (HFF) cells infected with HCMV with a range of compound concentrations—description of methods for this assay can be found in section 1.3.2.1. […] . Additional tested assay parameters in this Primary assay can be found in Table 3.2.1 and include EC90, S150, and S190 values—descriptions of those data points can be found in section 3.2.1.

CDK9/cyclin T1 = CDK9/cyclin T1 (Homo sapiens (Human), UniProt P50750); assay: Kinase activity assay, CDK9/cyclin T1; format: biochemical; conditions: Table 3.1.1; 10 μM ATP; 10-dose duplicate, 3-fold serial dilution starting at 10 μM; read-out: Compound IC50 CDK9/cyclin T1
[8] = Cytotoxicity concurrent with HCMV AD169 primary assay; format: cell-based, human; conditions: human, CC50
[9] = Cytotoxicity concurrent with EBV primary assay; conditions: human, Akata cells without virus induction
[10] = Cytotoxicity concurrent with Adenovirus secondary assay; format: cell-based; conditions: human, uninfected HFF cell monolayers; Adeno secondary assay, HFF cells
Method: (§4) Monolayers of HFF cells were prepared in 96-well plates and incubated at 37° C. for 1 d to allow the cells to reach confluency. Media was then aspirated from the wells and cells infected at a high MOI. At 1 h following infection, the inocula were removed and the monolayers rinsed with fresh media. […] Drug dilutions were added to the wells and the plates were incubated for various times, depending on the virus used and represents a single replication cycle for the virus. A duplicate set of dilutions were also performed but remained uninfected to serve as a cytotoxicity control and received equal compound exposure. Supernatants from each of the infected wells were subsequently titered using CTG in a TCID50 assay to quantify the progeny virus. For HCMV only, viral yield in the supernatants from the infected cells were titered using qPCR with HCMV primers [NT], and probe [NT].

[11] = test system: Adenovirus Adenoid75 strain; assay: Adenovirus secondary assay (yield reduction), Adenoid75 strain, HFF cells; format: cell-based; conditions: unidentified adenovirus; Adeno secondary assay, strain Adenoid75, HFF cells; read-out: EC90
Method: as §4

[12] = test system: Epstein-Barr virus Akata strain; assay: Epstein-Barr primary assay, Akata strain, Akata cells; format: cell-based; conditions: human gammaherpesvirus 4, Epstein-Barr primary assay, Akata strain, Akata cells
[13] = test system: HSV1 strain DM.2 - resistant isolate; assay: HSV1 primary assay, resistant isolate DM.2, HFF cells; format: cell-based, Herpes Simplex Virus 1; conditions: Human alphaherpesvirus 1, HFF
Method: as §1, §2

Sequence of CDK9/cyclin T1 (P50750 whole entry): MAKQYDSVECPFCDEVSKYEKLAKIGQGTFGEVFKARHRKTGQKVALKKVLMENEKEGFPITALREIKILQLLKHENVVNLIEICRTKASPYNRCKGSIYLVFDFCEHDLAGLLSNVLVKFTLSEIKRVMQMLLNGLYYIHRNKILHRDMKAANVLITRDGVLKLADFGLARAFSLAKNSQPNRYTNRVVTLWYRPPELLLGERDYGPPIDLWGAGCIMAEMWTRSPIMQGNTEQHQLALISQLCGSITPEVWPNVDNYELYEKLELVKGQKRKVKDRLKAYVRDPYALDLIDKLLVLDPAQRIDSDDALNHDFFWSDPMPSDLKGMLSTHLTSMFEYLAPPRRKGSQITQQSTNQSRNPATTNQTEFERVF
Sequence of CDK9/cyclin T1 (O60563 whole entry partner): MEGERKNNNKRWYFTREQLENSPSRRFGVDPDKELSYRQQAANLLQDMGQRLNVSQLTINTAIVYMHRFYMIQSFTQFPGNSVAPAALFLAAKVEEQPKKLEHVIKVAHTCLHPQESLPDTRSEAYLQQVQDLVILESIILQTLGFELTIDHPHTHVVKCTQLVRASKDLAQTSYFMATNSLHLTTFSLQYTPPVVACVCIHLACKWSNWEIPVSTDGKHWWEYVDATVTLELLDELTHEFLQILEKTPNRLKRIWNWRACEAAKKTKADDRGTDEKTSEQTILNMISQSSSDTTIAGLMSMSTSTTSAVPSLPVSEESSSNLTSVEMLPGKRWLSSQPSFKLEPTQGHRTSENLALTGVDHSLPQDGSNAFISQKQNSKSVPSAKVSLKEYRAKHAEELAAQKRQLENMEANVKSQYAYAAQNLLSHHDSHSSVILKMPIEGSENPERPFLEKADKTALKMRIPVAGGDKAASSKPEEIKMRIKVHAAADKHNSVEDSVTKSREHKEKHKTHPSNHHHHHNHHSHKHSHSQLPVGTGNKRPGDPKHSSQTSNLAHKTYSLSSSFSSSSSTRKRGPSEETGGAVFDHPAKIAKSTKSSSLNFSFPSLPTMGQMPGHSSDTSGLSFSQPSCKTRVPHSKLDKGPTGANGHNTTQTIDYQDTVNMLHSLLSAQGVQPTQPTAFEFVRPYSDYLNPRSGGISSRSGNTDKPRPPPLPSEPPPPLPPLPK

Row | SMILES | pEC50 (VZV strain Ellen) | EC90 (VZV strain Ellen) [µM] | CC50 [1] [µM] | CC50 [2] [µM] | CC50 [3] [µM] | pEC50 [4] | pEC50 (HSV1 strain E-377) | EC90 (HSV1 strain E-377) [µM] | pEC50 [5] | EC90 [5] [µM] | CC50 [6] [µM] | pEC50 (HSV2 strain G) | EC90 (HSV2 strain G) [µM] | other results
1 | NC(=O)CN1CCC(Nc2cc3c4ccc(F)cc4nn3cn2)CC1 [VKT-026] | 5.00 | 10 | 22 | 29.4 | 10 | 6.06 | 5.00 | 10 | 5.11 | 50 | 24.7 | 5.00 | 50 | CC50 (MEF cells): 50 μ.M; CC50 (HFF cells; human): 26.9 µM; EC90 [4]: 10 µM; pEC50 (Murine CMV strain Smith): 6.77; EC90 (Murine CMV strain Smith): 5.38 µM
2 | N[C@H]1CC[C@H](Nc2cc3c4ccc(F)cc4nn3cn2)CC1 [VKT-511, (1r,4r)-N1-(7-fluoropyrimido[1,6-b]indazol-3-yl)cyclohexane-1,4-diamine] | – | – | – | – | – | – | – | – | – | – | – | – | – | % Remaining at 60 min [7]: 107%; CC50 (HFF cells): 6.98 µM; pEC50 (HCMV strain AD169): 5.70; EC90 (HCMV strain AD169): 2 µM; pIC50 (CDK9/cyclin T1): 7.33
3 | Fc1ccc2c(c1)nn1cnc(NC3CCCOCC3)cc21 (stereo not shown) [VKT-015] | 5.00 | 10 | 39.7 | 50 | 50 | – | 4.30 | 50 | 5.15 | 10 | 41.8 | 4.30 | 50 | CC50 [8]: 27.7 µM; CC50 at 72 h [9]: 50 µM; CC50 [10]: 48.6 µM; EC90 [11]: 17.5 µM; pEC50 (HCMV strain AD169; Human betaherpesvirus 5): 5.00; EC90 (HCMV strain AD169; Human betaherpesvirus 5): 10 µM; pEC50 ([12]; read-out: EC50): 5.06; EC90 ([12]; read-out: EC90): 29.9 µM
4 | Nc1nc2c(ncn2COCCO)c(=O)[nH]1 [Acyclovir, reference compound] | 5.25 | 69.4 | – | – | – | 4.78 | 5.59 | – | – | – | – | 5.59 | – | pEC50 [13]: 3.82

— patent US20240309004A1, “SELECTIVE CYCLIN-DEPENDENT KINASE INHIBITORS AND METHODS OF THERAPEUTIC USE THEREOF” (ViroKyne Therapeutics, LLC, priority 2021, published 2024)
